Here are results for 8 compounds from patent publication US20250051375A1, “ANTI-HIV COMPOUNDS” (Gilead Sciences, Inc., priority 2023, published 2025).

Molecules are shown by their SMILES. ≈ marks a conversion by molar mass, not a printed value. Where two headings read alike, the source gives them in different places.

For data set [1], the target named is bovine intestinal alkaline phosphatase (Bos taurus (Bovine), UniProt P19111). Briefly: BiALP: conversion by bovine intestinal alkaline phosphatase. Particulars: 2 μM substrate, 100 ng/mL iALP, Tris pH 7.8, 37° C., 60 minutes; for [Intermediate A] or [Amprenavir]: parent formed. It counts as in vitro ADME. The procedure:
Fosamprenavir and its parent compound (amprenavir) were purchased from Millipore Sigma (St. Louis, MO). Test compounds, Intermediate A, fosamprenavir, and amprenavir were each separately dissolved in dimethyl sulfoxide (DMSO) at a concentration of 10 mM to form stock solutions.
All other chemicals were purchased from Millipore Sigma (St. Louis, MO) and Thermo Fisher Scientific (Waltham, MA). […] Internal Standard/Quench (IS/Q) was 100 nM labetalol in 99:1 (v/v) acetonitrile/formic acid.
Incubations were performed with Tris buffer alone (0.1 M Tris-HCl pH 7.8 containing 1 mM MgCl2 and 1 mM ZnCl2) or the same Tris buffer further containing 100 ng/mL iALP (0.01 units/mL). Triplicate 100 μL aliquots of Tris buffer±iALP were warmed to 37° C. and the reactions were initiated by the addition of the test compound or fosamprenavir to obtain final substrate concentrations of 2 μM. Incubations were then continued at 37° C. At 60 minutes, reactions were terminated by the addition of 200 μl of IS/Q and mixed by pipette. […] Aliquots (150 μL) of the supernatants were transferred to fresh plates containing 150 μL of water. Aliquots (15 μL) of the diluted supernatants were analyzed by mass spectrometry as described below.
Quantification of the test compounds and fosamprenavir was performed by analyte/internal standard peak area ratios (PARs) with comparison to 2 μM Intermediate A and amprenavir, respectively. The LC instrumentation consisted of a Thermo Scientific Vanquish pump and a Thermo Hypersil Gold column (1.9 μm particle size, 2.1×50 mm). […] The MS instrument was a Thermo Q Exactive™ Plus operating in positive ionization mode with mass tolerance of 5 ppm and calibrated on a twice weekly basis.

A short description of data set [2]: PBS Stability Assay. Particulars: buffer, pH 7.4, 2 μM, phosphate buffered saline pH 7.4; read-out: PBS T½. It is filed as physicochemical. The protocol:
Reagents. Stock solutions of test compounds in dimethyl sulfoxide (DMSO) having a final concentration of 10 mM were prepared and used in all experiments. Sekisui XenoTech (Kansas City, KS) provided pooled intestinal S9 fractions. All other chemicals were purchased from Sigma-Aldrich (St. Louis, MO) or VWR (West Chester, PA). Internal Standard/Quench (IS/Q) used to stop reactions was 100 nM labetalol in (by volume) formic acid (1%) and acetonitrile (99%).
PBS Stability Assay: For each test compound, an aliquot of the test compound was added to phosphate buffered saline (137 mM NaCl, 2.7 mM KCl, 10 mM phosphate buffer), pH 7.4. The incubation was initiated by the addition of the test compound to PBS to a final concentration of 2 μM. At 0, 10, 20, 30, 60 and 120 min, 25 μL aliquots of the incubation mixture were transferred to plates containing 225 μl of IS/Q solution. After quenching, the plates were centrifuged at 3000×g for 30 minutes. 150 μL aliquots of each supernatant were transferred to new plates and 150 μL water was added. Aliquots (10 μL) of the prepared samples were analyzed on a Thermo Q-Exactive mass spectrometer as described below.
Liquid Chromatography-Mass Spectrometry: Quantification of test compounds and control substrate was performed by analyte/internal standard peak area ratio (PAR) values measured on a Thermo Q-Exactive mass spectrometer coupled to a Dionex UltiMate 3000 HPLC with a Leap Technologies HTC PAL autosampler. The column used for analysis was a Thermo Scientific Hypersil GOLD (1.9 μm particle size, 50×2.1 mm). Mobile phase A consisted of 0.1% (v/v) formic acid in water. Mobile phase B consisted of 0.1% (v/v) formic acid in acetonitrile. Elution of analytes was achieved by a series of linear gradients varying the proportions of A and B. The mass spectrometer was calibrated on a weekly basis and mass tolerance of 5 ppm was used.
Data Analysis. Metabolic stabilities were determined by measuring the rates of disappearance of test compound and positive control substrate. Data (% of substrate remaining) were plotted on a semi-log scale and fitted using an exponential decline model:
where • Ct% of substrate remaining at time=t • C0% of substrate remaining at time=0 • t time • T½ half-life • The Half-life (T½) is determined by the following equation:
[formula] • Assuming a first-order reaction, the slope (k) is extrapolated from the aforementioned plotted data.

Data set [3] relates to HIV-1 IIIB strain. Nature of the data set: MT-4 HIV Wild Type Virus Infection Assay (IIIB Virus). It counts as cell-based. As to conditions: Human immunodeficiency virus 1, IIIB, MT4, 120 h, MT-4 cells acutely infected with HIV-1 IIIB, 5 day incubation, Cell-titer glo. The protocol:
Test compounds and controls were serially diluted and spotted in replicate into 384 well black assay plates via acoustic transfer (Echo). MT-4 cells were grown in batch, centrifuged and resuspended into fresh CCM media (RPMI w/10% FBS, 1% PS) at 2×10^6 cells/ml. MT-4 cells were acutely infected with HIV-1 IIIB strain. The size of each infection mix was scaled by the number of sample plates to be tested. Each infection mix was transferred into 5 mL closed tubes and nutated rapidly on a shaker at 37° C. incubator for 1 hour. The infection mixes were then diluted 25× in fresh cell culture media and then added to assay plates at 40 μL per well using a ViaFlo 384 pipettor. After 5 day incubation at 37° C. in a CO2 incubator, assay plates were processed with Cell-titer glo reagent using a ViaFlo 384 with an addition/mixing program. Plates were read immediately on Envision reader. Assay signals were plotted and dose response curves generated to determine individual compound EC50s.

Data set [4] can be described thus: Solubility in FaSSIF. Particulars: for solubility / solubility at 2 h: 23 °C, pH 6.5, fassif, thermodynamic from solid; for solubility: FaSSIF (pH 6.5) solubility. The protocol: Buffer Preparation: Fasted State Simulated Intestinal Fluid (FaSSIF): Simulated Intestinal Fluid (SIF) powder containing a complex of Taurocholate and Lecithin (4:1 molar ratio) was obtained from Biorelevant. 0.056 g of SIF powder was added to 25 mL of buffer, adjusted to pH 6.5, containing 0.011 g of NaOH (pellets), 0.099 g of NaH2PO4 (monohydrate), and 0.155 g of NaCl. The buffer was prepared with HPLC H2O. The SIE powder was stirred until completely dissolved and allowed to stand for 2 hours.
Test Compounds: Each test compound was placed in a vial containing approximately 7 mg of material. Aliquots were weighed out for each assay media at each time point to be analyzed. The buffer was added to each vial such that the final dose concentration of 5 mg/mL was achieved. Samples were then vortexed for 5-10 seconds.
The plate was sealed with a pierceable heat seal and analyzed by HPLC-UV.

The mark [5] stands for this setting: FaSSIF pH 6.5, dose 5 mg/mL, 2-hour incubation, ambient temperature.

bovine intestinal alkaline phosphatase, sequence (P19111 20-506): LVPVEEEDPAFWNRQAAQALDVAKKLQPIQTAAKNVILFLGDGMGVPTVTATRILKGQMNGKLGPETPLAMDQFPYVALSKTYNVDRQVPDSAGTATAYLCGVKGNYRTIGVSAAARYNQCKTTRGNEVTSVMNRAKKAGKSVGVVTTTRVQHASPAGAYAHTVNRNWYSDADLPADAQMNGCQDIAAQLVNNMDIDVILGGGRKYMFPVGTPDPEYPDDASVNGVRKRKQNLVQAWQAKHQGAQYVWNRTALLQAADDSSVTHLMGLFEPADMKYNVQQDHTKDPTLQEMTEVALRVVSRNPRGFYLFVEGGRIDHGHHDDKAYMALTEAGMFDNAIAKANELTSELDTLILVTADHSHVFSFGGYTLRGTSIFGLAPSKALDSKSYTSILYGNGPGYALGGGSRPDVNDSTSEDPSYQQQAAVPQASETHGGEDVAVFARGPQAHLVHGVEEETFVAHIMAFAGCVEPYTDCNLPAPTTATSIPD

The term EC50 denotes the midpoint of the concentration-response curve. As for `COC(=O)N[C@H](C(=O)N[C@@H](Cc1ccc(C#Cc2cnc(N3CC4CCC(C3)N4C3COC3)nc2)cc1)[C@H](CN(Cc1c(F)cc(-c2ccn(C(F)F)n2)cc1F)NC(=O)[C@@H](NC(=O)OC)C(C)(C)C(F)(F)F)OC(=O)OC(C)OC(=O)CC(C)(C)c1c(CC(=O)O)cc(C)cc1OP(=O)(O)O)C(C)(C)C(F)(F)F` (stereo in doubt) [Example 64], in data set [1], the “[Compound]” value amounted to 1271 nM. In addition, the half-life at 2 μM in data set [2] was 8.43 h. In addition, in data set [3] (read-out: EC50), the concentration for a half-maximal effect (EC50) amounted to 11.1 nM. Besides, in data set [4] (setting [5]), the “FaSSIF (pH 6.5) solubility” value came out at 165 μg/mL.

One may read the solubility as the concentration that dissolves in the medium under given conditions. A high value points to much dissolved substance. Turning to `COC(=O)N[C@H](C(=O)N[C@@H](Cc1ccc(C#Cc2cnc(N3CC4CCC(C3)N4C3COC3)nc2)cc1)[C@H](CN(Cc1c(F)cc(-c2ccn(C(F)F)n2)cc1F)NC(=O)[C@@H](NC(=O)OC)C(C)(C)C(F)(F)F)OC(=O)OCOC(=O)CC(C)(C)c1c(OP(=O)(O)O)cc(C(=O)O)cc1C(=O)O)C(C)(C)C(F)(F)F` [Example 1], in data set [1], the “[Compound]” value turned out to be 1318.1 nM. The half-life at 2 μM in data set [2] was 8.74 h. For the same compound, the concentration for a half-maximal effect (EC50) in data set [3] (read-out: EC50) amounted to 7.6 nM. Also, the solubility in data set [4] (setting [5]) came to 5060 µg/mL (≈ 3220 µM).

With `COC(=O)N[C@H](C(=O)N[C@@H](Cc1ccc(C#Cc2cnc(N3CC4CCC(C3)N4C3COC3)nc2)cc1)[C@H](CN(Cc1c(F)cc(-c2ccn(C(F)F)n2)cc1F)NC(=O)[C@@H](NC(=O)OC)C(C)(C)C(F)(F)F)OC(=O)OCOC(=O)CC(C)(C)c1c(C)cc(C(=O)O)cc1OP(=O)(O)O)C(C)(C)C(F)(F)F` [Example 2], the “[Compound]” value in data set [1] is 1359.6 nM. Also, the half-life at 2 μM in data set [2] came to 6.52 h. In addition, the EC50 in data set [3] (read-out: EC50) is 2.1 nM. In data set [4] (setting [5]), this compound had a solubility of 680 µg/mL (≈ 440 µM).

For `COC(=O)N[C@H](C(=O)N[C@@H](Cc1ccc(C#Cc2cnc(N3CC4CCC(C3)N4C3COC3)nc2)cc1)[C@H](CN(Cc1c(F)cc(-c2ccn(C(F)F)n2)cc1F)NC(=O)[C@@H](NC(=O)OC)C(C)(C)C(F)(F)F)OC(=O)CC(C)(C)c1c(CC(=O)N(CCCC(=O)O)CC(=O)O)cc(C)cc1OP(=O)(O)O)C(C)(C)C(F)(F)F` [Example 8], in data set [1], the “[Compound]” value is listed as 1709.4 nM, the “biALP Intermediate A or [Amprenavir] (% of total)” value is listed as 8.4 % of total and the “[Intermediate A] or [Amprenavir]” value is reported as 157.3 nM. Further, the half-life at 2 μM in data set [2] turned out to be 7.11 h. In data set [3], this compound came in with an EC50 of 230 nM. Further, the solubility at 2 h in data set [4] is 3260 µg/mL (≈ 2000 µM).

`COC(=O)N[C@H](C(=O)N[C@@H](Cc1ccc(C#Cc2cnc(N3CC4CCC(C3)N4C3COC3)nc2)cc1)[C@H](CN(Cc1c(F)cc(-c2ccn(C(F)F)n2)cc1F)NC(=O)[C@@H](NC(=O)OC)C(C)(C)C(F)(F)F)OC(=O)CC(C)(C)c1c(CC(=O)Nc2ccccn2)cc(C)cc1OP(=O)(O)O)C(C)(C)C(F)(F)F` [Example 13, (5S,10S,11S,14S)-8-(4-(1-(difluoromethyl)-1H-pyrazol-3-yl)-2,6-difluorobenzyl)-11-(4-((2-(8-(oxetan-3-yl)-3,8-diazabicyclo[3.2.1]octan-3-yl)pyrimidin-5-yl)ethynyl)benzyl)-3,6,13,16-tetraoxo-5,14-bis(1,1,1-trifluoro-2-methylpropan-2-yl)-2,17-dioxa-4,7,8,12,15-pentaazaoctadecan-10-yl 3-methyl-3-(4-methyl-2-(2-oxo-2-(pyridin-2-ylamino)ethyl)-6-(phosphonooxy)phenyl)butanoate]: in data set [1], the “[Compound]” value worked out at 1660.2 nM, the “biALP Intermediate A or [Amprenavir] (% of total)” value is 0.1 % of total and the “[Intermediate A] or [Amprenavir]” value was 1.8 nM. For the same compound, the half-life at 2 μM in data set [2] amounted to 1.98 h. In addition, a half-maximal response in data set [3] (EC50) required 223 nM.

For `COC(=O)N[C@H](C(=O)N[C@@H](Cc1ccc(C#Cc2cnc(N3CC4CCC(C3)N4C3COC3)nc2)cc1)[C@H](CN(Cc1c(F)cc(-c2ccn(C(F)F)n2)cc1F)NC(=O)[C@@H](NC(=O)OC)C(C)(C)C(F)(F)F)OC(=O)CC(C)(C)c1c(CC(=O)N[C@@H](CC(=O)O)C(=O)O)cc(C)cc1OP(=O)(O)O)C(C)(C)C(F)(F)F` [Example 23], the half-life at 2 μM in data set [2] came to 11.7 h. In data set [3], this compound had an EC50 of 204 nM. Besides, the solubility at 2 h in data set [4] stood at 4540 µg/mL (≈ 2840 µM).

Consider `COC(=O)N[C@H](C(=O)N[C@@H](Cc1ccc(C#Cc2cnc(N3CC4CCC(C3)N4C3COC3)nc2)cc1)[C@H](CN(Cc1c(F)cc(-c2ccn(C(F)F)n2)cc1F)NC(=O)[C@@H](NC(=O)OC)C(C)(C)C(F)(F)F)OC(=O)CC(C)(C)c1c(CC(=O)NC(CCCC(=O)O)C(=O)O)cc(C)cc1OP(=O)(O)O)C(C)(C)C(F)(F)F` (some centres unmarked) [Example 41], for which, in data set [1], the “[Compound]” value amounted to 2074.8 nM. Besides, in data set [2], the half-life at 2 μM came out at 5.02 h. For the same compound, the concentration for a half-maximal effect (EC50) in data set [3] stood at 43.5 nM.

In the case of `COC(=O)N[C@H](C(=O)N[C@@H](Cc1ccc(C#Cc2cnc(N3CC4CCC(C3)N4C3COC3)nc2)cc1)[C@H](CN(Cc1c(F)cc(-c2ccn(C(F)F)n2)cc1F)NC(=O)[C@@H](NC(=O)OC)C(C)(C)C(F)(F)F)OC(=O)OCOC(=O)CC(C)(C)c1c(CC(=O)N2CCN(S(C)(=O)=O)CC2)cc(C)cc1OP(=O)(O)O)C(C)(C)C(F)(F)F` [Example 84], in data set [1], the “[Compound]” value is 1594.8 nM. In data set [2], the half-life at 2 μM came to 3.02 h. The EC50 in data set [3] was 3.9 nM.
